Data taken from patent publication US9255063B2, “Colchicine solid-state forms; methods of making; and methods of use thereof” (Takeda Pharmaceuticals U.S.A., Inc., priority 2008, dated 2016).

What was measured:
[1] = TG-FTIR, N2 atmosphere, heating rate 10 K/min, range 25° C. to 350° C.
[2] = 81% RH; nitrogen; 38 days
Procedure: Five techniques are used to find colchicine solid forms: 1) suspension equilibration, 2) precipitation 3) drying and water vapor adsorption, 4) evaporation, and 5) melt quench. Suspension equilibration generally is carried out by slurrying the colchicine in a solvent system, optionally including an antisolvent. Precipitation generally is carried out by adding an antisolvent to a solution of colchicine. Evaporation technique is generally carried out by allowing the solvent of a solution of colchicine to evaporate to induce crystallization of the colchicine. Water vapor adsorption technique generally involves exposing colchicine to a controlled humid environment so that the material takes up water. The drying experiments can be performed under inert atmospheres (e.g., nitrogen). Melt quench generally involves fast cooling a melt to form a solid.

Row | Compound | Decomposition is observed above (temperature) [1] | Ethyl acetate content after water vapor adsorption [2] [% ethyl] | Water content after water vapor adsorption [2] [% water and]
1 | COc1cc2c(c(OC)c1OC)-c1ccc(OC)c(=O)cc1[C@@H](NC(C)=O)CC2 [Form E] | above 250 °C |  | 
2 | COc1cc2c(c(OC)c1OC)-c1ccc(OC)c(=O)cc1[C@@H](NC(C)=O)CC2 [Form F] | above 280 °C |  | 
3 | COc1cc2c(c(OC)c1OC)-c1ccc(OC)c(=O)cc1[C@@H](NC(C)=O)CC2 [Form A, (−)-N-[(7S,12aS)-1,2,3,10-tetramethoxy-9-oxo-5,6,7,9-tetrahydrobenzo[a]heptalen-7-yl]-acetamide] | above 275 °C | 2 | 4
